From publication PMC5349529, “Antagonizing effects of membrane-acting androgens on the eicosanoid receptor OXER1 in prostate cancer” (Scientific Reports, 2017)

Target: oxoeicosanoid receptor 1 (OXER1) (Homo sapiens, UniProt Q8TDS5)
Assay: inhibition of forskolin-stimulated cAMP in CHO-K1 cells stably expressing human OXER1 (agonist); also displaces [3H]testosterone from DU-145 membranes
Assay type: cell-based

Chain of oxoeicosanoid receptor 1 (OXER1) (Q8TDS5 whole entry): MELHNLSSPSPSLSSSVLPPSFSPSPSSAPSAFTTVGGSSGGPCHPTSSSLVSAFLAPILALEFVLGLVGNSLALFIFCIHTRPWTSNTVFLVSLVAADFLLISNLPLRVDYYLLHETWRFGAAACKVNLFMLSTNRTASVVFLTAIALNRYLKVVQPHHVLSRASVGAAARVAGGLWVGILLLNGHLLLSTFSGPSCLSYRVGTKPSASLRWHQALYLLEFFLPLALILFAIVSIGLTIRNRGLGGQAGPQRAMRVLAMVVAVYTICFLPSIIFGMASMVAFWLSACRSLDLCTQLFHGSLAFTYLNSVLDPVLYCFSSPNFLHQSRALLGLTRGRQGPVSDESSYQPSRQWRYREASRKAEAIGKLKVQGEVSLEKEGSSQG

In the case of CCCCC/C=C\C/C=C\C/C=C\C=C\C(=O)CCCC(=O)O [5-oxoETE, 5-oxo-6E,8Z,11Z,14Z-eicosatetraenoic acid], the IC50 is reported as ~2 nM.
